The text below walks through data of ChEMBL document CHEMBL1255286, “In Vitro activity of the new azole isavuconazole (BAL4815) compared with six other antifungal agents against 162 Cryptococcus neoformans isolates from Cuba” (2008).

Assay [1] deals with Cryptococcus neoformans. In words: Antimicrobial activity against Cryptococcus neoformans var. grubii clinical isolate by broth microdilution method. In kind it is functional. In general terms: In broth dilution the organism is exposed to a series of concentrations in liquid medium.
Assay [2] deals with Cryptococcus albidosimilis. In words: Antimicrobial activity against Cryptococcus albidosimilis by broth microdilution method. In kind it is functional. The settings on record: Naganishia albidosimilis.
For assay [3], the system named is Cryptococcus gattii species complex. Kind of assay: Antimicrobial activity against Cryptococcus gattii by broth microdilution method. In kind it is functional, Cryptococcus bacillisporus.
The next assay concerns Naganishia albida. In words: Antimicrobial activity against Cryptococcus albidus by broth microdilution method. In kind it is functional.
Assay [4] concerns Cryptococcus neoformans. Kind of assay: Antimicrobial activity against Cryptococcus neoformans var. grubii obtained from AIDS patient by broth microdilution method. In kind it is functional.
Assay [5] relates to Cryptococcus neoformans. Kind of assay: Antimicrobial activity against Cryptococcus neoformans var. grubii by broth microdilution method. It counts as functional.
Assay [6] concerns Cryptococcus neoformans. Kind of assay: Antimicrobial activity against Cryptococcus neoformans var. grubii obtained from non-AIDS patient by broth microdilution method. It counts as functional.

In brackets after ≈: the same amount, converted by molar mass.

By MIC50 is commonly meant the lowest concentration that inhibits either 50% of growth or 50% of the strains tested, depending on the study. A high value points to weaker potency. Usually MIC90 stands for an inhibitory concentration at the 90% level, which refers to growth in some studies and to a panel of isolates in others. For the compound `C[C@@H]1[C@H](O)[C@@H](C)/C=C/C=C/C=C/C=C/C=C/C=C/C=C/[C@H](O[C@@H]2O[C@H](C)[C@@H](O)[C@H](N)[C@@H]2O)C[C@@H]2O[C@](O)(C[C@@H](O)C[C@@H](O)[C@H](O)CC[C@@H](O)C[C@@H](O)CC(=O)O[C@H]1C)C[C@H](O)[C@H]2C(=O)O` [AMPHOTERICIN B], the MIC50 (in the assay with Cryptococcus neoformans [1]; in assay [2]; in assay [3]; with Naganishia albida; in the assay on Cryptococcus neoformans [4]; in the assay with Cryptococcus neoformans [5]) was 0.25 µg/mL (≈ 0.271 µM) throughout. For the same compound, the MIC90 worked out at 0.25 µg/mL (≈ 0.271 µM) in the assay with Cryptococcus neoformans [1]; 0.5 µg/mL (≈ 0.541 µM) in assay [2]; 0.5 µg/mL (≈ 0.541 µM) in assay [3]; 0.5 µg/mL (≈ 0.541 µM) with Naganishia albida; 0.25 µg/mL (≈ 0.271 µM) in the assay on Cryptococcus neoformans [4]; 0.5 µg/mL (≈ 0.541 µM) in the assay with Cryptococcus neoformans [5].

Turning to `OC(Cn1cncn1)(Cn1cncn1)c1ccc(F)cc1F` [FLUCONAZOLE], the MIC50 was 2 µg/mL (≈ 6.53 µM) against Cryptococcus neoformans [1]; 4 µg/mL (≈ 13.1 µM) in assay [2]; 4 µg/mL (≈ 13.1 µM) in assay [3]; 4 µg/mL (≈ 13.1 µM) with Naganishia albida; 2 µg/mL (≈ 6.53 µM) in the assay on Cryptococcus neoformans [4]; 4 µg/mL (≈ 13.1 µM) in the assay on Cryptococcus neoformans [5]. In addition, the MIC90 stood at 4 µg/mL (≈ 13.1 µM) with Cryptococcus neoformans [1]; 8 µg/mL (≈ 26.1 µM) in assay [2]; 8 µg/mL (≈ 26.1 µM) in assay [3]; 8 µg/mL (≈ 26.1 µM) against Naganishia albida; 2 µg/mL (≈ 6.53 µM) in the assay with Cryptococcus neoformans [4]; 8 µg/mL (≈ 26.1 µM) with Cryptococcus neoformans [5].

Take `Nc1nc(=O)[nH]cc1F` [FLUCYTOSINE]: the MIC50 against Cryptococcus neoformans [1] worked out at 4 µg/mL (≈ 31 µM); in assay [2] it was 4 µg/mL (≈ 31 µM); in the assay with Cryptococcus neoformans [6], 2 µg/mL (≈ 15.5 µM); in assay [3], 4 µg/mL (≈ 31 µM); against Naganishia albida, 4 µg/mL (≈ 31 µM); in the assay on Cryptococcus neoformans [4], 4 µg/mL (≈ 31 µM). In addition, the MIC50 against Cryptococcus neoformans [5] is 4 µg/mL (≈ 31 µM). Moreover, the MIC90 against Cryptococcus neoformans [1] was found to be 8 µg/mL (≈ 62 µM); in assay [2], 8 µg/mL (≈ 62 µM); with Cryptococcus neoformans [6], 4 µg/mL (≈ 31 µM); in assay [3], 8 µg/mL (≈ 62 µM); against Naganishia albida it was 8 µg/mL (≈ 62 µM); in the assay on Cryptococcus neoformans [4], 8 µg/mL (≈ 62 µM). In the assay on Cryptococcus neoformans [5], this compound returned an MIC90 of 8 µg/mL (≈ 62 µM).

In the case of `C[C@@H](c1nc(-c2ccc(C#N)cc2)cs1)[C@](O)(Cn1cncn1)c1cc(F)ccc1F` [ISAVUCONAZOLE], the MIC50 against Cryptococcus neoformans [1] was 0.004 µg/mL (≈ 0.00914 µM); in assay [2] it was 0.004 µg/mL (≈ 0.00914 µM); with Cryptococcus neoformans [6], 0.008 µg/mL (≈ 0.0183 µM); in assay [3], 0.004 µg/mL (≈ 0.00914 µM); with Naganishia albida it was 0.004 µg/mL (≈ 0.00914 µM); with Cryptococcus neoformans [4] it was 0.008 µg/mL (≈ 0.0183 µM). The MIC50 with Cryptococcus neoformans [5] came out at 0.004 µg/mL (≈ 0.00914 µM). The MIC90 in the assay with Cryptococcus neoformans [1] turned out to be 0.016 µg/mL (≈ 0.0366 µM); in assay [2], 0.016 µg/mL (≈ 0.0366 µM); against Cryptococcus neoformans [6] it was 0.031 µg/mL (≈ 0.0709 µM); in assay [3], 0.016 µg/mL (≈ 0.0366 µM); in the assay with Naganishia albida, 0.016 µg/mL (≈ 0.0366 µM); against Cryptococcus neoformans [4], 0.016 µg/mL (≈ 0.0366 µM). The same compound came in with an MIC90 against Cryptococcus neoformans [5] of 0.016 µg/mL (≈ 0.0366 µM).

For `CCC(C)n1ncn(-c2ccc(N3CCN(c4ccc(OCC5COC(Cn6cncn6)(c6ccc(Cl)cc6Cl)O5)cc4)CC3)cc2)c1=O` (stereo not drawn) [ITRACONAZOLE], the MIC50 in the assay on Cryptococcus neoformans [1] worked out at 0.031 µg/mL (≈ 0.0439 µM); in assay [2], 0.063 µg/mL (≈ 0.0893 µM); against Cryptococcus neoformans [6] it was 0.031 µg/mL (≈ 0.0439 µM); in assay [3] it was 0.063 µg/mL (≈ 0.0893 µM); against Naganishia albida, 0.063 µg/mL (≈ 0.0893 µM); in the assay on Cryptococcus neoformans [4] it was 0.031 µg/mL (≈ 0.0439 µM). In the assay on Cryptococcus neoformans [5], this compound registered an MIC50 of 0.063 µg/mL (≈ 0.0893 µM). Also, the MIC90 is 0.25 µg/mL (≈ 0.354 µM) against Cryptococcus neoformans [1]; 0.25 µg/mL (≈ 0.354 µM) in assay [2]; 0.063 µg/mL (≈ 0.0893 µM) with Cryptococcus neoformans [6]; 0.25 µg/mL (≈ 0.354 µM) in assay [3]; 0.25 µg/mL (≈ 0.354 µM) with Naganishia albida; 0.125 µg/mL (≈ 0.177 µM) against Cryptococcus neoformans [4]. Also, the MIC90 in the assay with Cryptococcus neoformans [5] amounted to 0.25 µg/mL (≈ 0.354 µM).

One may read the MIC as the smallest concentration in the dilution series that meets the test's criterion for growth inhibition. A lower MIC goes with a more susceptible organism. In the case of `CC[C@@H]([C@H](C)O)n1ncn(-c2ccc(N3CCN(c4ccc(OC[C@@H]5CO[C@@](Cn6cncn6)(c6ccc(F)cc6F)C5)cc4)CC3)cc2)c1=O` [POSACONAZOLE], the MIC50 in the assay with Cryptococcus neoformans [1] amounted to 0.004 µg/mL (≈ 0.00571 µM); in assay [2], 0.31 µg/mL (≈ 0.442 µM); in the assay with Cryptococcus neoformans [6], 0.063 µg/mL (≈ 0.0899 µM); in assay [3], 0.31 µg/mL (≈ 0.442 µM); against Naganishia albida, 0.31 µg/mL (≈ 0.442 µM); against Cryptococcus neoformans [4] it was 0.031 µg/mL (≈ 0.0442 µM). In addition, the MIC50 with Cryptococcus neoformans [5] stood at 0.31 µg/mL (≈ 0.442 µM). The MIC90 was 0.016 µg/mL (≈ 0.0228 µM) with Cryptococcus neoformans [1]; 0.63 µg/mL (≈ 0.899 µM) in assay [2]; 0.125 µg/mL (≈ 0.178 µM) against Cryptococcus neoformans [6]; 0.63 µg/mL (≈ 0.899 µM) in assay [3]; 0.63 µg/mL (≈ 0.899 µM) in the assay with Naganishia albida; 0.125 µg/mL (≈ 0.178 µM) in the assay on Cryptococcus neoformans [4]. This compound also gave an MIC90 in the assay with Cryptococcus neoformans [5] of 0.63 µg/mL (≈ 0.899 µM). Further, the minimum inhibitory concentration (MIC) (in assay [2]; in assay [3]; against Naganishia albida; in the assay with Cryptococcus neoformans [5]) was 0.016 µg/mL (≈ 0.0228 µM) in each case.

Consider `C[C@@H](c1ncncc1F)[C@](O)(Cn1cncn1)c1ccc(F)cc1F` [VORICONAZOLE], for which the MIC50 in the assay with Cryptococcus neoformans [1] was determined as 0.031 µg/mL (≈ 0.0887 µM); in assay [2] it was 0.063 µg/mL (≈ 0.18 µM); in the assay with Cryptococcus neoformans [6], 0.063 µg/mL (≈ 0.18 µM); in assay [3], 0.063 µg/mL (≈ 0.18 µM); against Naganishia albida, 0.063 µg/mL (≈ 0.18 µM); in the assay with Cryptococcus neoformans [4], 0.031 µg/mL (≈ 0.0887 µM). This compound had an MIC50 against Cryptococcus neoformans [5] of 0.063 µg/mL (≈ 0.18 µM). In addition, the MIC90 against Cryptococcus neoformans [1] amounted to 0.125 µg/mL (≈ 0.358 µM); in assay [2] it was 0.25 µg/mL (≈ 0.716 µM); with Cryptococcus neoformans [6], 0.063 µg/mL (≈ 0.18 µM); in assay [3], 0.25 µg/mL (≈ 0.716 µM); against Naganishia albida, 0.25 µg/mL (≈ 0.716 µM); in the assay with Cryptococcus neoformans [4], 0.125 µg/mL (≈ 0.358 µM). Also, the MIC90 with Cryptococcus neoformans [5] turned out to be 0.25 µg/mL (≈ 0.716 µM).
